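96-well plates; 48 h exposure; 5 concentrations. Endpoints by linear interpolation between flanking doses. Not reached: highest tested concentration assigned. GI50 = concentration required for 50% inhibition of growth. TGI: total growth inhibition.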
Tests used:
Test in all cases: NCI-60 cell line screen, 48 h
786-0 renal = test system: 786-0 renal
A498 renal = test system: A498 renal
A549 NSCLC = test system: A549 NSCLC
ACHN renal = test system: ACHN renal
BT-549 breast = test system: BT-549 breast
CAKI-1 renal = test system: CAKI-1 renal
CCRF-CEM leukemia = test system: CCRF-CEM leukemia
COLO 205 colon = test system: COLO 205 colon
DU-145 prostate = test system: DU-145 prostate
EKVX NSCLC = test system: EKVX NSCLC
HCC-2998 colon = test system: HCC-2998 colon
HCT-116 colon = test system: HCT-116 colon
HCT-15 colon = test system: HCT-15 colon
HL-60(TB) leukemia = test system: HL-60(TB) leukemia
HOP-62 NSCLC = test system: HOP-62 NSCLC
HOP-92 NSCLC = test system: HOP-92 NSCLC
HS 578T breast = test system: HS 578T breast
HT29 colon = test system: HT29 colon
IGROV1 ovarian = test system: IGROV1 ovarian
K-562 leukemia = test system: K-562 leukemia
KM12 colon = test system: KM12 colon
LOX IMVI melanoma = test system: LOX IMVI melanoma
M14 melanoma = test system: M14 melanoma
MALME-3M melanoma = test system: MALME-3M melanoma
MCF7 breast = test system: MCF7 breast
MDA-MB-231 breast = test system: MDA-MB-231 breast
MDA-MB-435 = test system: MDA-MB-435
MOLT-4 leukemia = test system: MOLT-4 leukemia
NCI-H226 lung = test system: NCI-H226 lung
NCI-H23 lung = test system: NCI-H23 lung
NCI-H460 lung = test system: NCI-H460 lung
NCI-H522 lung = test system: NCI-H522 lung
NCI/ADR-RES ovarian = test system: NCI/ADR-RES ovarian
OVCAR-3 ovarian = test system: OVCAR-3 ovarian
OVCAR-4 ovarian = test system: OVCAR-4 ovarian
OVCAR-5 ovarian = test system: OVCAR-5 ovarian
OVCAR-8 ovarian = test system: OVCAR-8 ovarian
PC-3 prostate = test system: PC-3 prostate
RPMI-8226 leukemia = test system: RPMI-8226 leukemia
RXF 393 renal = test system: RXF 393 renal
SF-268 CNS = test system: SF-268 CNS
SF-295 CNS = test system: SF-295 CNS
SF-539 CNS = test system: SF-539 CNS
SK-MEL-2 melanoma = test system: SK-MEL-2 melanoma
SK-MEL-28 melanoma = test system: SK-MEL-28 melanoma
SK-MEL-5 melanoma = test system: SK-MEL-5 melanoma
SK-OV-3 ovarian = test system: SK-OV-3 ovarian
SN12C renal = test system: SN12C renal
SNB-19 CNS = test system: SNB-19 CNS
SNB-75 CNS = test system: SNB-75 CNS
SR leukemia = test system: SR leukemia
SW-620 colon = test system: SW-620 colon
T-47D breast = test system: T-47D breast
TK-10 renal = test system: TK-10 renal
U251 CNS = test system: U251 CNS
UACC-257 melanoma = test system: UACC-257 melanoma
UACC-62 melanoma = test system: UACC-62 melanoma
UO-31 renal = test system: UO-31 renal

Molecule `CC(=O)OCC1OC(OC2=C(CC=C(C)C)C(=O)c3ccccc3C2=O)C(OC(C)=O)C(OC(C)=O)C1OC(C)=O` (stereo unspecified) has a GI50 (786-0 renal) of 14.1 µM, a TGI (786-0 renal) of 27.3 µM and a GI50 (A498 renal) of over 33.6 µM. For the same molecule, the TGI (A498 renal) was over 56.9 µM, the GI50 (A549 NSCLC) was 10.4 µM and the TGI (A549 NSCLC) was 40 µM. The GI50 (ACHN renal) was 3.16 µM, the TGI (ACHN renal) was 10.1 µM and the GI50 (BT-549 breast) was 2.25 µM. The TGI (BT-549 breast) was 6.95 µM, the GI50 (CAKI-1 renal) was 6.55 µM and the TGI (CAKI-1 renal) was 17.7 µM. For the same molecule, the GI50 (CCRF-CEM leukemia) was 3.83 µM, the TGI (CCRF-CEM leukemia) was over 100 µM and the GI50 (COLO 205 colon) was 11.5 µM. The TGI (COLO 205 colon) was 24.2 µM, the GI50 (DU-145 prostate) was 10.9 µM and the TGI (DU-145 prostate) was 22.9 µM. It also gave a GI50 (EKVX NSCLC) of 2.81 µM, a TGI (EKVX NSCLC) of 11.6 µM and a GI50 (HCC-2998 colon) of 8.05 µM. The TGI (HCC-2998 colon) was 20.5 µM, the GI50 (HCT-116 colon) was 1.6 µM and the TGI (HCT-116 colon) was 3.05 µM. It also gave a GI50 (HCT-15 colon) of 3.91 µM, a TGI (HCT-15 colon) of 18.1 µM and a GI50 (HL-60(TB) leukemia) of 2.91 µM. The TGI (HL-60(TB) leukemia) was 6.62 µM, the GI50 (HOP-62 NSCLC) was 18 µM and the TGI (HOP-62 NSCLC) was 33.6 µM. For the same molecule, the GI50 (HOP-92 NSCLC) was 1.52 µM, the TGI (HOP-92 NSCLC) was 3.77 µM and the GI50 (HS 578T breast) was 5.21 µM. It also gave a TGI (HS 578T breast) of over 32.6 µM, a GI50 (HT29 colon) of 15.3 µM and a TGI (HT29 colon) of 36.7 µM. For the same molecule, the GI50 (IGROV1 ovarian) was 3.47 µM, the TGI (IGROV1 ovarian) was 8.21 µM and the GI50 (K-562 leukemia) was 2.72 µM. It also gave a TGI (K-562 leukemia) of over 30.4 µM, a GI50 (KM12 colon) of 2.26 µM and a TGI (KM12 colon) of 4.89 µM. It also gave a GI50 (LOX IMVI melanoma) of 2.58 µM, a TGI (LOX IMVI melanoma) of 8.01 µM and a GI50 (M14 melanoma) of 5.67 µM. It also gave a TGI (M14 melanoma) of 18.2 µM, a GI50 (MALME-3M melanoma) of 4.96 µM and a TGI (MALME-3M melanoma) of 19.6 µM. It also gave a GI50 (MCF7 breast) of 2.06 µM, a TGI (MCF7 breast) of 4.73 µM and a GI50 (MDA-MB-231 breast) of 2.63 µM. It also gave a TGI (MDA-MB-231 breast) of 8.41 µM, a GI50 (MDA-MB-435) of 2.9 µM and a TGI (MDA-MB-435) of 9.09 µM. It also gave a GI50 (MOLT-4 leukemia) of 2.5 µM, a TGI (MOLT-4 leukemia) of 6.59 µM and a GI50 (NCI-H226 lung) of 5.58 µM. It also gave a TGI (NCI-H226 lung) of 28.3 µM, a GI50 (NCI-H23 lung) of 4.13 µM and a TGI (NCI-H23 lung) of 16.9 µM. It also gave a GI50 (NCI-H460 lung) of 4.12 µM, a TGI (NCI-H460 lung) of 15.5 µM and a GI50 (NCI-H522 lung) of 1.88 µM. For the same molecule, the TGI (NCI-H522 lung) was 4.85 µM, the GI50 (NCI/ADR-RES ovarian) was 3.07 µM and the TGI (NCI/ADR-RES ovarian) was 10.2 µM. It also gave a GI50 (OVCAR-3 ovarian) of 1.93 µM, a TGI (OVCAR-3 ovarian) of 3.58 µM and a GI50 (OVCAR-4 ovarian) of 2.31 µM. It also gave a TGI (OVCAR-4 ovarian) of 6.7 µM, a GI50 (OVCAR-5 ovarian) of 4.57 µM and a TGI (OVCAR-5 ovarian) of 16.2 µM. The GI50 (OVCAR-8 ovarian) was 3.23 µM, the TGI (OVCAR-8 ovarian) was 11.9 µM and the GI50 (PC-3 prostate) was 1.97 µM. It also gave a TGI (PC-3 prostate) of 6.08 µM, a GI50 (RPMI-8226 leukemia) of 2.03 µM and a TGI (RPMI-8226 leukemia) of 5.25 µM. For the same molecule, the GI50 (RXF 393 renal) was 3.76 µM, the TGI (RXF 393 renal) was 8.32 µM and the GI50 (SF-268 CNS) was 4.23 µM. For the same molecule, the TGI (SF-268 CNS) was 15.5 µM, the GI50 (SF-295 CNS) was 3.67 µM and the TGI (SF-295 CNS) was 12.7 µM. The GI50 (SF-539 CNS) was 2.84 µM, the TGI (SF-539 CNS) was 9.9 µM and the GI50 (SK-MEL-2 melanoma) was 2.46 µM. The TGI (SK-MEL-2 melanoma) was 5.67 µM, the GI50 (SK-MEL-28 melanoma) was 5.22 µM and the TGI (SK-MEL-28 melanoma) was 16.9 µM. For the same molecule, the GI50 (SK-MEL-5 melanoma) was 2.24 µM, the TGI (SK-MEL-5 melanoma) was 5.15 µM and the GI50 (SK-OV-3 ovarian) was 12.9 µM. It also gave a TGI (SK-OV-3 ovarian) of 25.9 µM, a GI50 (SN12C renal) of 7.01 µM and a TGI (SN12C renal) of 23.9 µM. It also gave a GI50 (SNB-19 CNS) of 6.28 µM, a TGI (SNB-19 CNS) of 16.2 µM and a GI50 (SNB-75 CNS) of 3.35 µM. For the same molecule, the TGI (SNB-75 CNS) was 11.4 µM, the GI50 (SR leukemia) was 3.55 µM and the TGI (SR leukemia) was 51.1 µM. For the same molecule, the GI50 (SW-620 colon) was 2.78 µM, the TGI (SW-620 colon) was 9.18 µM and the GI50 (T-47D breast) was 1.93 µM. The TGI (T-47D breast) was 4.24 µM, the GI50 (TK-10 renal) was 15.1 µM and the TGI (TK-10 renal) was 29.8 µM. For the same molecule, the GI50 (U251 CNS) was 2.92 µM, the TGI (U251 CNS) was 11.5 µM and the GI50 (UACC-257 melanoma) was 3.75 µM. It also gave a TGI (UACC-257 melanoma) of 10.3 µM, a GI50 (UACC-62 melanoma) of 2.45 µM and a TGI (UACC-62 melanoma) of 7.15 µM. It also gave a GI50 (UO-31 renal) of 2.68 µM and a TGI (UO-31 renal) of 10.7 µM.
